Experimental data published in patent US9307766B2, “Isoxazoline derivatives as insecticidal compounds” (Syngenta Participations AG, priority 2011, dated 2016).

Experiments:
Type in all cases: in vivo
Tetranychus urticae = Tetranychus urticae (two-spotted spider mite) leaf disc spray test; settings: foliar, 192 h, 200 ppm sprayed on bean leaf discs, mite populations of mixed ages, egg, larval and adult mortality 8 days later
Description: Tetranychus urticae (Two-Spotted Spider Mite):
Bean leaf discs on agar in 24-well microtiter plates were sprayed with test solutions at an application rate of 200 ppm. After drying, the leaf discs are infested with mite populations of mixed ages. 8 days later, discs are checked for egg mortality, larval mortality, and adult mortality.

Thrips tabaci = Thrips tabaci (onion thrips) leaf disc spray test; settings: foliar, 168 h, 200 ppm sprayed on sunflower leaf discs, thrip population of mixed ages, mortality after 7 days
Method: Thrips tabaci (Onion Thrips):
Sunflower leaf discs were placed on agar in a 24-well microtiter plate and sprayed with test solutions at an application rate of 200 ppm. After drying, the leaf discs were infested with a thrip population of mixed ages. After an incubation period of 7 days, samples were checked for mortality.

Diabrotica balteata = Diabrotica balteata (corn root worm) artificial diet test; settings: 120 h, 200 ppm (concentration in well 18 ppm) on artificial diet, L2 larvae, larval mortality and growth regulation after 5 days
Method: Diabrotica balteata (Corn Root Worm):
A 24-well microtiter plate (MTP) with artificial diet was treated with test solutions at an application rate of 200 ppm (concentration in well 18 ppm) by pipetting. After drying, the MTP's were infested with L2 larvae (6-10 per well). After an incubation period of 5 days, samples were checked for larval mortality and growth regulation.

Plutella xylostella = Plutella xylostella (diamond back moth) artificial diet test; settings: 144 h, 200 ppm (concentration in well 18 ppm) on artificial diet, L2 larvae, larval mortality and growth regulation after 6 days
Method: Plutella xylostella (Diamond Back Moth):
24-well microtiter plate (MTP) with artificial diet was treated with test solutions at an application rate of 200 ppm (concentration in well 18 ppm) by pipetting. After drying, the MTP's were infested with L2 larvae (7-12 per well). After an incubation period of 6 days, samples were checked for larval mortality and growth regulation.

Spodoptera littoralis = Spodoptera littoralis (Egyptian cotton leafworm) leaf disc spray test; settings: foliar, 72 h, 200 ppm sprayed on cotton leaf discs, L1 larvae, mortality, feeding behavior, growth regulation 3 days after treatment
Description: Spodoptera littoralis (Egyptian Cotton Leafworm):
Cotton leaf discs were placed on agar in a 24-well microtiter plate and sprayed with test solutions at an application rate of 200 ppm. After drying, the leaf discs were infested with 5 L1 larvae. The samples were checked for mortality, feeding behavior, and growth regulation 3 days after treatment (DAT).

Heliothis virescens = Heliothis virescens (tobacco budworm) egg test on artificial diet; settings: 96 h, 200 ppm (concentration in well 18 ppm) by pipetting, eggs 0-24 h old on artificial diet, egg mortality, larval mortality, growth regulation after 4 days
Method: Heliothis virescens (Tobacco Budworm):
Eggs (0-24 h old) were placed in 24-well microtiter plate on artificial diet and treated with test solutions at an application rate of 200 ppm (concentration in well 18 ppm) by pipetting. After an incubation period of 4 days, samples were checked for egg mortality, larval mortality, and growth regulation.

Measured: pest or weed control at 200 ppm

O=C(NC1CS(=O)(=O)C1)c1ccc(C2=NOC(c3cc(Cl)cc(Cl)c3)(C(F)(F)F)C2Br)c2ccccc12 (stereo not drawn) [Compound D01, 4-[4-bromo-5-(3,5-dichlorophenyl)-5-(trifluoromethyl)-4H-isoxazol-3-yl]-N-(1,1-dioxothietan-3-yl)naphthalene-1-carboxamide]
≥ 80%: all assays above

CC1(NC(=O)c2ccc(C3=NOC(c4cc(Cl)cc(Cl)c4)(C(F)(F)F)C3Br)c3ccccc23)CSC1 (stereo not drawn) [Compound D02, 4-[4-bromo-5-(3,5-dichlorophenyl)-5-(trifluoromethyl)-4H-isoxazol-3-yl]-N-(3-methylthietan-3-yl)naphthalene-1-carboxamide]
≥ 80%: all assays above

O=C(NC1C[S+]([O-])C1)c1ccc(C2=NOC(c3cc(Cl)cc(Cl)c3)(C(F)(F)F)C2Br)c2ccccc12 (stereo not drawn) [Compound D03, 4-[4-bromo-5-(3,5-dichlorophenyl)-5-(trifluoromethyl)-4H-isoxazol-3-yl]-N-(1-oxothietan-3-yl)naphthalene-1-carboxamide]
≥ 80%: all assays above

O=C(NC1CSC1)c1ccc(C2=NOC(c3cc(Cl)cc(Cl)c3)(C(F)(F)F)C2Br)c2ccccc12 (stereo not drawn) [Compound D04, 4-[4-bromo-5-(3,5-dichlorophenyl)-5-(trifluoromethyl)-4H-isoxazol-3-yl]-N-(thietan-3-yl)naphthalene-1-carboxamide]
≥ 80%: all assays above

O=C(CNC(=O)c1ccc(C2=NOC(c3cc(Cl)cc(Cl)c3)(C(F)(F)F)C2)c2ccccc12)NC1CS(=O)(=O)C1 (stereo not drawn) [Compound D05, 4-[5-(3,5-dichlorophenyl)-5-(trifluoromethyl)-4H-isoxazol-3-yl]-N-[2-[(1,1-dioxothietan-3-yl)amino]-2-oxo-ethyl]naphthalene-1-carboxamide]
≥ 80%: all assays above

CC1(NC(=O)CNC(=O)c2ccc(C3=NOC(c4cc(Cl)cc(Cl)c4)(C(F)(F)F)C3)c3ccccc23)CSC1 (stereo not drawn) [Compound D06, 4-[5-(3,5-dichlorophenyl)-5-(trifluoromethyl)-4H-isoxazol-3-yl]-N-[2-[(3-methylthietan-3-yl)amino]-2-oxo-ethyl]naphthalene-1-carboxamide]
≥ 80%: all assays above

O=C(CNC(=O)c1ccc(C2=NOC(c3cc(Cl)cc(Cl)c3)(C(F)(F)F)C2)c2ccccc12)NC1C[S+]([O-])C1 (stereo not drawn) [Compound D07, 4-[5-(3,5-dichlorophenyl)-5-(trifluoromethyl)-4H-isoxazol-3-yl]-N-[2-oxo-2-[(1-oxothietan-3-yl)amino]ethyl]naphthalene-1-carboxamide]
≥ 80%: Tetranychus urticae | Thrips tabaci | Plutella xylostella | Spodoptera littoralis

O=C(CNC(=O)c1ccc(C2=NOC(c3cc(Cl)cc(Cl)c3)(C(F)(F)F)C2)c2ccccc12)NC1CSC1 (stereo not drawn) [Compound D08, 4-[5-(3,5-dichlorophenyl)-5-(trifluoromethyl)-4H-isoxazol-3-yl]-N-[2-oxo-2-(thietan-3-ylamino)ethyl]naphthalene-1-carboxamide]
not listed: Heliothis virescens
≥ 80%: all other assays above

O=C(NC1CS(=O)(=O)C1)c1ccc(C2=NOC(c3cc(Cl)cc(Cl)c3)(C(F)(F)F)C2)c2ncccc12 (stereo not drawn) [Compound D09, 8-[5-(3,5-dichlorophenyl)-5-(trifluoromethyl)-4H-isoxazol-3-yl]-N-(1,1-dioxothietan-3-yl)quinoline-5-carboxamide]
≥ 80%: Plutella xylostella | Spodoptera littoralis

O=C(NC1CSC1)c1ccc(C2=NOC(c3cc(Cl)cc(Cl)c3)(C(F)(F)F)C2)c2ncccc12 (stereo not drawn) [Compound D10, 8-[5-(3,5-dichlorophenyl)-5-(trifluoromethyl)-4H-isoxazol-3-yl]-N-(thietan-3-yl)quinoline-5-carboxamide]
≥ 80%: Diabrotica balteata | Plutella xylostella | Spodoptera littoralis | Heliothis virescens

O=C(NC1C[S+]([O-])C1)c1ccc(C2=NOC(c3cc(Cl)cc(Cl)c3)(C(F)(F)F)C2)c2ncccc12 (stereo not drawn) [Compound D11, 8-[5-(3,5-dichlorophenyl)-5-(trifluoromethyl)-4H-isoxazol-3-yl]-N-(1-oxothietan-3-yl)quinoline-5-carboxamide]
≥ 80%: Plutella xylostella | Spodoptera littoralis | Heliothis virescens

O=C(NC1CSC1)c1ccc(C2=NOC(c3cc(Cl)cc(Cl)c3)(C(F)(F)F)C2)c2cccnc12 (stereo not drawn) [Compound D12, 5-[5-(3,5-dichlorophenyl)-5-(trifluoromethyl)-4H-isoxazol-3-yl]-N-(thietan-3-yl)quinoline-8-carboxamide]
≥ 80%: all assays above

O=C(NC1CS(=O)(=O)C1)c1cnc(C2=NOC(c3cc(Cl)cc(Cl)c3)(C(F)(F)F)C2)c2ccccc12 (stereo not drawn) [Compound D13, 1-[5-(3,5-dichlorophenyl)-5-(trifluoromethyl)-4H-isoxazol-3-yl]-N-(1,1-dioxothietan-3-yl)isoquinoline-4-carboxamide]
≥ 80%: Diabrotica balteata | Plutella xylostella | Spodoptera littoralis | Heliothis virescens

CC1(NC(=O)c2cnc(C3=NOC(c4cc(Cl)cc(Cl)c4)(C(F)(F)F)C3)c3ccccc23)CSC1 (stereo not drawn) [Compound D14, 1-[5-(3,5-dichlorophenyl)-5-(trifluoromethyl)-4H-isoxazol-3-yl]-N-(3-methylthietan-3-yl)isoquinoline-4-carboxamide]
not listed: Spodoptera littoralis
≥ 80%: all other assays above

O=C(NC1CSC1)c1cnc(C2=NOC(c3cc(Cl)cc(Cl)c3)(C(F)(F)F)C2)c2ccccc12 (stereo not drawn) [Compound D15, 1-[5-(3,5-dichlorophenyl)-5-(trifluoromethyl)-4H-isoxazol-3-yl]-N-(thietan-3-yl)isoquinoline-4-carboxamide]
≥ 80%: all assays above
